We go through one molecule from US10201530B2, “Treatment of BRCA1-defective cancer or resistant cancers” (City of Hope, priority 2014, dated 2019).

Structures are written as SMILES.

Test [1] has as its system OV90. The test is described as follows: Cytotoxicity (MTT/DIMSCAN), OV90 cells. It is filed as cell-based, human. Particulars: Homo sapiens, OV-90; OV90, wild-type BRCA1 ovarian cancer cells; COH29 72 h; read-out: IC50, mean ± SEM. How it is done: (§1) All cell lines were acquired from the American Type Culture Collection (Manassas, Va., USA). Cells were maintained in RPMI 1640 medium (Mediatech) with 10% fetal bovine serum, 2 mM glutamine, and 100 U of penicillin and 100 μg of streptomycin per ml of medium (Sigma) at 37° C. in 5% CO2. To isolate HCC1437+BRCA1 cells, parental HCC1937 cells were transfected with pcDNA3.1 plasmid expressing full-length BRCA1 cDNA. Stable transfectant clones were selected and used for drug sensitivity assays. For stable transfection, cells at 30-40% confluence were incubated overnight with […] of plasmid DNA, using FUGENE® 6 transfectin reagent (Roche Molecular Biochemical, Monza, Italy) according to the manufacturer's instructions. Cells were then selected in puromycin (1 μg/ml) (Invitrogen life Technologies, La Jolla, Calif., USA.) After 20 to 30 days, viable puromycin-resistant colonies from HCC1937 transfections were expanded and screened. The clones that stably expressed […] and retained growth potential were assayed for BRCA1 expression by Western blot analysis. By Western blot analysis, we evaluated the restoration of BRCA1 expression in the puromycin-resistant cDNA/transfectant cells.
The MTT cytotoxicity assay was performed by incubating with MTT and monitoring the MTT formazan formed by viable cells with a microplate reader at a wavelength of 560 nm; the survival, ratio was determined using the formula: (Atest−Ablank)/(Acontrol−Ablank)×100%. The cytotoxicity was determined in 96-well plates using the semiautomatic fluorescence-based Digital Imaging Microscopy System (DIMSCAN). DIMSCAN uses digital imaging microscopy to quantify viable cells, which selectively accumulate FDA (fluorescein diacetate; Alfa Aesar, Ward Hill, Mass.). DIMSCAN is capable of measuring cytotoxicity over a 4 log dynamic range by quantifying total fluorescence per well (which is proportional to the number of viable cells) after elimination of the background fluorescence by digital thresholding and eosin Y (Mallinckrodt Baker, Center Valley, Pa.) quenching. Cells were seeded into 96-well plates in 100 μL of complete medium at 2,000 to 5,000 cells per well depending on cell line growth rate. After overnight incubation, test compound was added to each well at various concentrations in 50 μL of culture medium. […] Total fluorescence per well was then measured using DIMSCAN, and the results were expressed as the ratio of the fluorescence in treated wells to the fluorescence in untreated wells (survival fraction).

The subject of test [2] is OVCAR-3. The test is described as follows: Cytotoxicity, OVCAR-3 cells. Particulars: Homo sapiens, read-out: IC50, mean ± SEM. It is filed as cell-based, human. As for the experimental part: as §1
(§2) The MTT cytotoxicity assay was performed by incubating with MTT and monitoring the MTT formazan formed by viable cells with a microplate reader at a wavelength of 560 nm; the survival, ratio was determined using the formula: (Atest−Ablank)/(Acontrol−Ablank)×100%. The cytotoxicity was determined in 96-well plates using the semiautomatic fluorescence-based Digital Imaging Microscopy System (DIMSCAN). DIMSCAN uses digital imaging microscopy to quantify viable cells, which selectively accumulate FDA (fluorescein diacetate; Alfa Aesar, Ward Hill, Mass.). DIMSCAN is capable of measuring cytotoxicity over a 4 log dynamic range by quantifying total fluorescence per well (which is proportional to the number of viable cells) after elimination of the background fluorescence by digital thresholding and eosin Y (Mallinckrodt Baker, Center Valley, Pa.) quenching. Cells were seeded into 96-well plates in 100 μL of complete medium at 2,000 to 5,000 cells per well depending on cell line growth rate. After overnight incubation, test compound was added to each well at various concentrations in 50 μL of culture medium. After incubation with the drugs for 96 hours at 37° C., FDA (final concentration: […]) and eosin Y [final concentration: 0.1% (w/v)] were added to each well and the cells were incubated for an additional 20 minutes at 37° C. Total fluorescence per well was then measured using DIMSCAN, and the results were expressed as the ratio of the fluorescence in treated wells to the fluorescence in untreated wells (survival fraction).

For test [3], the system named is KB-7D. The test is described as follows: Cytotoxicity, KB-7D cells. It is filed as cell-based, human. Particulars: Homo sapiens, KB7D, cisplatin-resistant, read-out: IC50, mean ± SEM. How it is done: as §1, §2
The subject of test [4] is PARP1 protein. The test is described as follows: PARP1 protein level by Western blot. It is filed as cell-based, human. How it is done: For subcellular fractionation, cells were trypsinized and washed with cold PBS solution twice. […] Following centrifugation at 1,000 g for 5 min, the supernatant was collected (i.e., cytoplasmic fraction) and pellets were washed with the same buffer twice. The washed samples were extracted for 40 min on ice with fractionation buffer containing 0.5% NP-40 for nuclear fraction. All the samples were sonicated and clarified by centrifugation at 16,000 g for 15 min. Protein concentrations of all fractions were determined with Bio-Rad Protein Assay (Bio-Rad Laboratories, Hercules, Calif.). Immunoblotting was performed as described previously (21,22). Briefly, equal amounts of boiled protein samples were subjected to SDS-polyacrylamide gel electrophoresis (PAGE) and transferred onto nitrocellulose membranes (Bio-Rad Laboratories). Membranes were blocked for 1 hour in 3% BSA in Tris buffered saline containing 0.05% Tween 20 (TBST) and incubated for 1 hour with primary antibody (1:500 or 1:1000) diluted in TBST containing 1% BSA. After two washes with TBST, membranes were incubated for 1 hour with horseradish peroxidase-conjugated secondary Abs (1:3000 dilution) at room temperature. The immunoblots were visualized on film with the West-Q chemi-luminescence kit (GenDEPOT, Barker, Tex.).

Test [5] relates to HCC1937 tumors. The test is described as follows: Orthotopic tumor explant model, HCC1937. It is filed as in vivo. Particulars: HCC1937 tumors in mammary fat pads of NSG mice, daily oral 400 mg/kg, 28 days. As for the experimental part:
Experiments in mice were conducted under a protocol approved by the IACUC of City of Hope. Because HCC1937 and HCC1937+BRCA1 cells from slow-growing tumors, they were implanted using MATRIGEL™ (Becton-Dickinson Biosciences). To establish tumors 4×10^6 cells in 200 μL serum-free medium containing 50% MATRIGEL™ were injected into the mammary fat pads around the inguinal area of a pair of 8 week old female NSG mice. Once the initial tenors reached 13 mm in diameter, they were dissected out minced into 3 mm pieces and implanted into the inguinal area of the mammary fat pads of the experimental mice Tumors were measured over a 28-day period, and for each time point, the student t-test was used to determine the statistical significance between daily gavage with 400 mg/kg COH29 in 30% solutol and corresponding vehicle control. The p value less than 0.05 (2 sides) was considered to indicate statistical significance

The subject of test [6] is HCC1937 + BRCA1. The test is described as follows: Cytotoxicity, HCC1937+BRCA1 cells. It is filed as cell-based, human. Particulars: Homo sapiens; HCC1937 + BRCA1, triple negative; COH29 72 h. As for the experimental part: as §1
The MTT cytotoxicity assay was performed by incubating with MTT and monitoring the MTT formazan formed by viable cells with a microplate reader at a wavelength of 560 nm; the survival, ratio was determined using the formula: (Atest−Ablank)/(Acontrol−Ablank)×100%. The cytotoxicity was determined in 96-well plates using the semiautomatic fluorescence-based Digital Imaging Microscopy System (DIMSCAN). DIMSCAN uses digital imaging microscopy to quantify viable cells, which selectively accumulate FDA (fluorescein diacetate; Alfa Aesar, Ward Hill, Mass.). DIMSCAN is capable of measuring cytotoxicity over a 4 log dynamic range by quantifying total fluorescence per well (which is proportional to the number of viable cells) after elimination of the background fluorescence by digital thresholding and eosin Y (Mallinckrodt Baker, Center Valley, Pa.) quenching. […]

Consider `O=C(Nc1nc(-c2ccc(O)c(O)c2)c(-c2ccccc2)s1)c1ccc(O)c(O)c1` [COH29], for which the IC50 in test [1] came out at 31.6 ± 3.35 µM; in test [2], 20.5 ± 0.81 µM; in test [3], 8.48 ± 0.27 µM; in test [6] it was 35 ± 3.63 µM. The “effect on PARP1 protein level” value was “attenuated PARP1 protein” in test [4] (HCC1937 BRCA1-defective cells, 24 h) and “Little reduction” in test [4] (HCC1937 cells irrespective of BRCA1 status, 4 h treatment). Besides, the “growth of tumors compared to vehicle” value in test [5] was “significantly (p=0.0007) suppressed”.
